Results published in US6001812A, “Modulating body/cranial hair growth with derivatives of the α-type melanocyte-stimulating hormone” (Societe L'Oreal S.A., priority 1995, dated 1999).
Where a SMILES comes first, the peptide text is derived from it.

System: hair follicles
Assay: Lengthening and survival of hair follicles maintained in vitro
Type: cell-based
Set-up: Mean lengthening: unit not given here
Experimental: Viable in vitro hair follicles were prepared according to the technique described in French Patent Application No. 95-08465, filed Jul. 12, 1995 and assigned to the assignee hereof.
From a scalp biopsy, a rather fine strip of scalp was isolated using a scalpel. The adipose tissue surrounding the follicles was removed with microforceps while avoiding damage to the hair bulb. The follicles were cut out with a scalpel under a microscope in order to separate them from their epidermal and dermal surroundings.
The follicles were then cultured in the wells of Costar-type 24-well plates, at the rate of one follicle per well. Each well contained 0.5 ml of Williams' medium E, to which had been added penicillin and streptomycin to a final concentration of 50 IU/ml, glutamine to 2 mM, bovine insulin to 0.01 mg/ml and hydrocortisone to 0.04 mg/ml.
The follicles were then measured using a microscope equipped with a micrometric eyepiece.
After 24 hours, the follicles were again measured and those which had lengthened by less than 0.3 divisions of the micrometer, corresponding to 0.16 mm, were discarded.
The five (5) following culturing conditions were tested:
Condition A: Complete Williams' medium E, without peptide.
Condition B: Complete Williams' medium E+10 mM Ac-LPV-NH2.
Condition C: Complete Williams' medium E+1 mM Ac-LPV-NH2.
Condition D: Complete Williams' medium E+0.1 mM Ac-LPV-NH2.

[1] = 0.1 mM peptide in complete Williams' medium E, day 0
[2] = 0.1 mM peptide in complete Williams' medium E, day 1
[3] = 0.1 mM peptide in complete Williams' medium E, day 4
[4] = 1 mM peptide in complete Williams' medium E, day 0
[5] = 1 mM peptide in complete Williams' medium E, day 1
[6] = 1 mM peptide in complete Williams' medium E, day 11
[7] = 10 mM peptide in complete Williams' medium E, day 0
[8] = 10 mM peptide in complete Williams' medium E, day 1
[9] = 10 mM peptide in complete Williams' medium E, day 12
[10] = summary of Example 1, versus medium without peptide

SMILES: CC(=O)N[C@@H](CCCCN)C(=O)N1CCC[C@H]1C(=O)N[C@H](C(N)=O)C(C)C [Acetyl-Lys-Pro-Val-NH2] (Ac-Lys-Pro-Val-NH2)
- % Survival [1]: 100%
- Mean lengthening [1]: 0.00
- % Survival [2]: 100%
- Mean lengthening [2]: 0.37
- % Survival [3]: 100%
- Mean lengthening [3]: 1.10
- % Survival (0.1 mM peptide in complete Williams' medium E, day 5): 100%
- % Survival (0.1 mM peptide in complete Williams' medium E, day 6): 100%
- % Survival (0.1 mM peptide in complete Williams' medium E, day 7): 83%
- % Survival (0.1 mM peptide in complete Williams' medium E, day 8): 50%
- % Survival (0.1 mM peptide in complete Williams' medium E, day 11): 42%
- % Survival (0.1 mM peptide in complete Williams' medium E, day 12): 17%
- % Survival [4]: 100%
- Mean lengthening [4]: 0.00
- % Survival [5]: 100%
- Mean lengthening [5]: 0.38
- % Survival (1 mM peptide in complete Williams' medium E, day 4): 100%
- % Survival (1 mM peptide in complete Williams' medium E, day 5): 100%
- % Survival (1 mM peptide in complete Williams' medium E, day 6): 100%
- % Survival (1 mM peptide in complete Williams' medium E, day 7): 91%
- % Survival (1 mM peptide in complete Williams' medium E, day 8): 55%
- % Survival [6]: 36%
- Mean lengthening [6]: 1.70
- % Survival [7]: 100%
- Mean lengthening [7]: 0.00
- % Survival [8]: 100%
- Mean lengthening [8]: 0.38
- % Survival (10 mM peptide in complete Williams' medium E, day 4): 100%
- % Survival (10 mM peptide in complete Williams' medium E, day 5): 100%
- % Survival (10 mM peptide in complete Williams' medium E, day 6): 100%
- % Survival (10 mM peptide in complete Williams' medium E, day 7): 100%
- % Survival (10 mM peptide in complete Williams' medium E, day 8): 92%
- % Survival (10 mM peptide in complete Williams' medium E, day 11): 83%
- % Survival [9]: 42%
- Mean lengthening [9]: 2.40
- Effect on lengthening of the cultured hair follicles (in words) [10]: promoted the lengthening
- Effect on survival time of the cultured hair follicles (in words) [10]: increased their survival time
